# How the values were obtained:
# [1] = species: Sus scrofa; assay: Displacement of [3H]-(+)-MK801 from pig brain phencyclidine binding site of NMDA receptor at 1 uM by scintillation counting
# [2] = tested on: Sigma-2 receptor (Rattus norvegicus); assay: Displacement of [3H]-di-o-tolylguanidine from sigma-2 receptor in rat liver homogenate at 1 uM by liquid scintillation counting
# [3] = Displacement of [3H]-(+)-MK801 from pig brain phencyclidine binding site of NMDA receptor by scintillation counting; design: species or system Sus scrofa
# [4] = target: Sigma-2 receptor (Rattus norvegicus); assay: Displacement of [3H]-di-o-tolylguanidine from sigma-2 receptor in rat liver homogenate by liquid scintillation counting
SMILES,inhibition [1] [%],inhibition [2] [%],Ki [3] [nM],Ki [4] [nM]
CN[C@H]1CCN(C(=O)OCc2ccccc2)[C@H]([C@H]2COC(c3ccccc3)(c3ccccc3)O2)C1 (racemic),6,35,–,–
N[C@@H]1CCN[C@H]([C@@H]2COC(c3ccccc3)(c3ccccc3)O2)C1 (racemic),26,15,–,–
O=C1CCN[C@H]([C@H]2COC(c3ccccc3)(c3ccccc3)O2)C1 (racemic),–,–,470,–
O[C@H]1CCN[C@H]([C@@H]2COC(c3ccccc3)(c3ccccc3)O2)C1 (racemic),3,30,–,–
CN[C@H]1CCN(C(=O)OCc2ccccc2)[C@H]([C@@H]2COC(c3ccccc3)(c3ccccc3)O2)C1 (racemic),7,18,–,–
N[C@@H]1CCN[C@H]([C@H]2COC(c3ccccc3)(c3ccccc3)O2)C1 (racemic),44,26,–,–
CN[C@H]1CCN[C@H]([C@H]2COC(c3ccccc3)(c3ccccc3)O2)C1 (racemic),30,37,–,–
O[C@@H]1CCN[C@H]([C@H]2COC(c3ccccc3)(c3ccccc3)O2)C1 (racemic),–,2,527,–
CN[C@@H]1CCN[C@H]([C@@H]2COC(c3ccccc3)(c3ccccc3)O2)C1 (racemic),16,44,–,–
N[C@H]1CCN[C@H]([C@H]2COC(c3ccccc3)(c3ccccc3)O2)C1 (racemic),17,17,–,–
CN[C@@H]1CCN(C(=O)OCc2ccccc2)[C@H]([C@@H]2COC(c3ccccc3)(c3ccccc3)O2)C1 (racemic),7,28,–,–
N[C@H]1CCN[C@H]([C@@H]2COC(c3ccccc3)(c3ccccc3)O2)C1 (racemic),25,13,–,–
CO[C@@H]1CCN[C@H]([C@@H]2COC(c3ccccc3)(c3ccccc3)O2)C1 (racemic),37,18,–,–
O=C(OCc1ccccc1)N1CC[C@H](NCc2ccccc2)C[C@H]1[C@H]1COC(c2ccccc2)(c2ccccc2)O1 (racemic),15,8,–,–
CN[C@@H]1CCN[C@H]([C@H]2COC(c3ccccc3)(c3ccccc3)O2)C1 (racemic),40,12,–,–
CO[C@H]1CCN[C@H]([C@H]2COC(c3ccccc3)(c3ccccc3)O2)C1 (racemic),–,9,981,–
CO[C@@H]1CCN[C@H]([C@H]2COC(c3ccccc3)(c3ccccc3)O2)C1 (racemic),49,5,–,–
CN[C@@H]1CCN(C(=O)OCc2ccccc2)[C@H]([C@H]2COC(c3ccccc3)(c3ccccc3)O2)C1 (racemic),10,42,–,–
O=C(OCc1ccccc1)N1CC[C@H](NCc2ccccc2)C[C@H]1[C@@H]1COC(c2ccccc2)(c2ccccc2)O1 (racemic),30,–,–,442
CN[C@H]1CCN[C@H]([C@@H]2COC(c3ccccc3)(c3ccccc3)O2)C1 (racemic),16,–,–,3670
CO[C@H]1CCN[C@H]([C@@H]2COC(c3ccccc3)(c3ccccc3)O2)C1 (racemic),21,23,–,–
O[C@@H]1CCN[C@H]([C@@H]2COC(c3ccccc3)(c3ccccc3)O2)C1 (racemic),0,0,–,–
O[C@H]1CCN[C@H]([C@H]2COC(c3ccccc3)(c3ccccc3)O2)C1 (racemic),–,13,44,–
O=C(OCc1ccccc1)N1CC[C@@H](NCc2ccccc2)C[C@H]1[C@H]1COC(c2ccccc2)(c2ccccc2)O1 (racemic),20,14,–,–
O=C1CCN[C@H]([C@@H]2COC(c3ccccc3)(c3ccccc3)O2)C1 (racemic),84,–,–,–
O=C(OCc1ccccc1)N1CC[C@@H](NCc2ccccc2)C[C@H]1[C@@H]1COC(c2ccccc2)(c2ccccc2)O1 (racemic),8,23,–,–

# From ChEMBL document CHEMBL3217603, “Synthesis and NMDA receptor affinity of dexoxadrol analogues with modifications in position 4 of the piperidine ring” (Medchemcomm, 2010)
